Laboratory results as given in PMC4683377, “BODIPY-Based Fluorescent Probes for Sensing Protein Surface-Hydrophobicity” (Scientific Reports, 2015).

What was measured:
[1] = target: T1, apomyoglobin (ApoMb) (Equus caballus, UniProt P68082); test: fluorescence titration ([…] dye, protein varied); format: binding
T1 construct: gene MB; apo form (heme removed) prepared from equine myoglobin

[2] = target: T2, bovine serum albumin (BSA) (Bos taurus, UniProt P02769); test: fluorescence titration ([…] dye, protein varied); format: binding
T2 construct: gene ALB
T2 sequence (P02769 25-607): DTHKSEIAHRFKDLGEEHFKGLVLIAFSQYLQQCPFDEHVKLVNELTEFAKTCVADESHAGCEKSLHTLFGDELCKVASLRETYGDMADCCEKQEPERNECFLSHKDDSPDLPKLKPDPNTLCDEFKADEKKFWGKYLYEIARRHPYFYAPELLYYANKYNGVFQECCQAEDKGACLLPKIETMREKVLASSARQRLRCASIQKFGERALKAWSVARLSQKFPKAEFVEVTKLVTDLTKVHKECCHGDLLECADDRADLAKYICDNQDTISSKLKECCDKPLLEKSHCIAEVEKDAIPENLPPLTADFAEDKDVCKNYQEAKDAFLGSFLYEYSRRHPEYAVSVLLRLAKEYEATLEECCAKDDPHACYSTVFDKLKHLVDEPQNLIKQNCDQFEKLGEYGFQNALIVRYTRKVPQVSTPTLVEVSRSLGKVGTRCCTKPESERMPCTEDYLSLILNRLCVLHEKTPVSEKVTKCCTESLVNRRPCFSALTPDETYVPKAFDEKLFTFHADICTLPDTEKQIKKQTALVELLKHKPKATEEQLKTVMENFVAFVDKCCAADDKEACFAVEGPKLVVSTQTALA

T1 sequence (P68082 2-154): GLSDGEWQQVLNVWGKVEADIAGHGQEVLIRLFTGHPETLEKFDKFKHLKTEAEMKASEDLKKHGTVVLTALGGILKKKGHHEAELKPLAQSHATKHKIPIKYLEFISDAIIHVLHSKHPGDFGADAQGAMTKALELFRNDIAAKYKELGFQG

`COCCNC1=[N+]2C(=C(c3ccc(OC)cc3)c3ccc(NCCOC)n3[B-]2(F)F)C=C1` [compound 2, HPsensor 2] gave a Kd [1] of 330 nM and a Kd [2] of 34 nM.
